Reference: patent US9750817B2, “Amphotericin B derivatives” (priority 2015, dated 2017)
≈ marks a conversion by molar mass, not a printed value. Where two headings read alike, the source gives them in different places.

Experiments:
human erythrocytes = test: In-vitro toxicity (hemolysis) study; assay type: cell-based; settings: 6 μg/ml
Description: Reference is made to FIG. 4B. Fresh human erythrocytes were diluted 1:100 in PBS, and incubated in an Eppendorf tube while rotating slowly in the presence of 6 μg/ml of each of compound 4 and compound 6. Amphotericin B was used as positive control. Sterile double distilled water served as a control for 100% hemolysis. After 1, 3, 5 and 21 h, 20 μl of each test tube were removed and diluted in 180 μl PBS. Samples were centrifuged for 10 minutes at 1200 RPM and the optical density of the supernatant was measured at 425 nm.

[1] = system: mouse embryonic fibroblasts (MEFs); test: MTT viability assay in mouse embryonic fibroblasts; assay type: cell-based
Description: Reference is made to FIG. 4C. Mouse embryonic fibroblasts were used in this example. 1×10^4 mouse embryonic fibroblasts (MEFs) per well were seeded in 96-well plates and incubated at 37° C. After 24 h the media was replaced with 100 μl culture medium containing serial dilutions of AMB, compounds 4 or 6, or left untreated. After 24 h, the media was replaced by fresh media (100 μl per well) containing 1 mg/ml MTT (3-(4,5-Dimethylthiazol-2-yl)-2,5-Diphenyltetrazolium Bromide, ((Biological Industries, Israel)) reagent and the cells were incubated for an additional 3 h at 37° C. MTT-formazan crystals were dissolved by the addition of 100 μl per well of extraction solution (20% SDS, 50% N,N-dimethyl formamide (DMF), pH=4.7) and incubation for 16 h at 37° C. Absorbance at 570 nm was recorded on a Biotek Synergy HT plate reader.
The results were expressed as the percentage of living cells relative to the untreated control and are depicted in FIG. 4C. The inhibition concentration (IC50) value is the concentration of the compound which inhibited cell growth by 50%.

ICR mice = test: In vivo toxicity, intravenous injection; settings: female ICR mice, intravenous
Description: In-vivo toxicity was determined in mice using 6 week old female ICR mice (n=6). Different concentrations of each formulation were injected intravenously through the tail vein, 0.2 ml per mouse, until death was observed. PAD-AMB conjugates were prepared in sterile saline solution and were filtered through 0.45-micrometer pore-size cellulose acetate sterile filters prior to injection.

[2] = Solubility in double-distilled water; assay type: physicochemical
Description: Physical characteristics of AMB derivatives and of AMB were tested, including solubility.

[3] = Solubility in 0.9% saline after vortex, sonication and centrifuge; assay type: physicochemical
[4] = Stability (hydrolysis) in phosphate buffered saline; assay type: physicochemical
Aspergillus terreus = test: MIC/MFC broth dilution (CLSI), clinical isolates; assay type: cell-based; settings: listed as printed C. terreus, 1 isolate, 48 h at 37° C.
Description: (§1) Isolates of Aspergillus fumigatus, Aspergillus flavus, Aspergillus terreus Aspergillus niger, Rhizopus oryzae, Candida albicans and Candida krusei were isolated from patients in Israeli hospitals and used for in vitro efficacy studies.
(§2) Efficacy was evaluated by measuring minimum inhibitory concentration (MIC) and minimum fungicidal concentration (MFC) values for fungal isolates. Testing of isolates was performed according to the Clinical & Laboratory Standards Institute (CLSI) method. (CLSI. 2008. M27-A3 Reference method for broth dilution antifungal susceptibility testing of yeasts; Approved Standard—3rd edition. Clinical and Laboratory Standards Institute, Wayne). RPMI MOPS media was used throughout the experiment as growth and dilution media. Spores and yeast cells were harvested in 0.05% Tween from 24-48 h and cultures were grown in rich yeast extract-agar-glucose (YAG) medium (composed of: 0.5% w/v yeast extract, 1% w/v glucose, 10 millimolar (mM) MgCl2, supplemented with 0.1% v/v trace elements solution, and 0.2% v/v vitamin mix). The spores and the yeast cells were counted and diluted to a final concentration of 2.5×10^4 per ml. A stock solution of 5 mg/ml was prepared in dimethylsulfoxide for free AMB. Compounds 4 and 6 were prepared in sterile saline. Double dilutions of each drug were performed in 100 μL volume of RPMI-MOPS in 96 well plates beginning with a final concentration of 32 micrograms (μg)/well of each drug to 0.06 μg/well. 2500 spores or yeast cells were added to each well. Results were recorded 48 h post incubation at 37° C. […] The MFC was defined as the lowest drug concentration that yielded three or fewer colonies (i.e. 99% of the inoculum was killed).

Rhizopus oryzae = test: MIC/MFC broth dilution (CLSI), clinical isolates; assay type: cell-based; settings: 1 isolate, 48 h at 37° C.
Description: as §1, §2

Candida krusei = test: MIC/MFC broth dilution (CLSI), clinical isolates; assay type: cell-based; settings: C. krusei, 3 isolates, 48 h at 37° C.
Description: as §1, §2

Aspergillus fumigatus = test: MIC/MFC broth dilution (CLSI), clinical isolates; assay type: cell-based; settings: A. fumigatus
Description: as §1, §2

Aspergillus niger = test: MIC/MFC broth dilution (CLSI), clinical isolates; assay type: cell-based; settings: A. niger, 3 isolates, 48 h at 37° C.
Description: as §1, §2

Aspergillus flavus = test: MIC/MFC broth dilution (CLSI), clinical isolates; assay type: cell-based; settings: A. Flavus, 3 isolates, 48 h at 37° C.
Description: as §1, §2

Candida albicans = test: MIC/MFC broth dilution (CLSI), clinical isolates; assay type: cell-based; settings: C. albicans, 2 isolates, 48 h at 37° C.
Description: as §1, §2

A. fumigatus (Af 293) = test: MIC of compound 6, AMB and FMOC-6; assay type: cell-based, Aspergillus fumigatus
Description: as §2
(§3) In addition, the amine protected equivalent of compound 6 in which the amine of compound 6 was protected with an FMOC group was tested (designated FMOC-6) to determine MIC versus AMB and versus compound 6 against A. fumigatus (Af 293) and C. albicans (CBS562).

C. albicans (CBS562) = test: MIC of compound 6, AMB and FMOC-6; assay type: cell-based, Candida albicans
Description: as §2, §3

C[C@@H]1[C@H](O)[C@@H](C)/C=C/C=C/C=C/C=C/C=C/C=C/C=C/[C@H](O[C@@H]2O[C@H](C)[C@@H](O)[C@H](NC(=O)CCOCCOCCOCCOCCOCCOCCOCCOCCN)[C@@H]2O)C[C@@H]2O[C@](O)(C[C@@H](O)C[C@@H](O)[C@H](O)CC[C@@H](O)C[C@@H](O)CC(=O)O[C@H]1C)C[C@H](O)[C@H]2C(=O)O [Compound 4, amphotericin B amide-PEG(8)-amine]
hemolytic activity (human erythrocytes; after 3 h of agitation): small hemolytic activity | toxicity to erythrocytes (human erythrocytes; assay conditions of FIG. 4B): less toxic (about four times less) | IC50 (concentration which inhibited cell growth by 50%) ([1]; 24 h exposure, MTT): 280 µg/mL | times less toxic than AMB ([1]; from IC50): 40 times | mouse LD50 fold higher than AMB (ICR mice): at least 20 fold | signs of toxicity at the highest injectable doses (ICR mice): did not show any signs of toxicity | LD50 (ICR mice; tail vein): not reached | Maximum Dose (ICR mice; tail vein): 22 mg/kg | Solubility ([2]; double-distilled water): 5.5 mg/mL (≈ 4080 µM) | increased solubility relative to corresponding non-PEG-conjugated AMB compounds [3]: greater than 5500 fold | hydrolysis after 4 hours ([4]; 4 hours): no hydrolysis could be observed | level of hydrolysis after 24 hours ([4]; 24 hours): 0.51% | MFC (Aspergillus terreus): 32 µg/mL (≈ 23.7 µM) | MIC (Aspergillus terreus): 32 µg/mL (≈ 23.7 µM) | MFC (Rhizopus oryzae): 8 µg/mL (≈ 5.94 µM) | MIC (Rhizopus oryzae): 8 µg/mL (≈ 5.94 µM) | MFC (Candida krusei): 8 µg/mL (≈ 5.94 µM) | MIC (Candida krusei): 4 to 8 µg/mL | MFC (Aspergillus fumigatus; 4 isolates, 48 h at 37° C.): 4 to 16 µg/mL | MIC (Aspergillus fumigatus; 4 isolates, 48 h at 37° C.): 4 to 16 µg/mL | MFC (Aspergillus niger): 1 to 4 µg/mL | MIC (Aspergillus niger): 1 to 4 µg/mL | MFC (Aspergillus flavus): 4 to 8 µg/mL | MIC (Aspergillus flavus): 4 to 8 µg/mL | MFC (Candida albicans): 4 µg/mL (≈ 2.97 µM) | MIC (Candida albicans): 1 to 2 µg/mL

COC(=O)[C@H]1[C@@H]2C[C@@H](O[C@@H]3O[C@H](C)[C@@H](O)[C@H](N)[C@@H]3O)/C=C/C=C/C=C/C=C/C=C/C=C/C=C/[C@H](C)[C@@H](O)[C@@H](C)[C@H](C)OC(=O)C[C@H](O)C[C@H](O)CC[C@@H](O)[C@H](O)C[C@H](O)C[C@](O)(C[C@@H]1O)O2 [Amphotericin B methyl ester, reference compound]
Solubility [2]: <0.001 mg/mL

COC(=O)C1C(O)CC2(O)CC(O)CC(O)C(O)CCC(O)CC(O)CC(=O)OC(C)C(C)C(O)C(C)C=CC=CC=CC=CC=CC=CC=CC(OC3OC(C)C(O)C(NC(=O)CCOCCOCCOCCOCCN)C3O)CC1O2 (centres unmarked) [AME-PEG4-amine]
Solubility [2]: Insoluble

COC(=O)C1C(O)CC2(O)CC(O)CC(O)C(O)CCC(O)CC(O)CC(=O)OC(C)C(C)C(O)C(C)C=CC=CC=CC=CC=CC=CC=CC(OC3OC(C)C(O)C(NC(=O)CCOCCOCCOCCOCCOCCOCCOCCOCCNC(=O)OCC4c5ccccc5-c5ccccc54)C3O)CC1O2 (centres unmarked) [FMOC-6]
MIC (A. fumigatus (Af 293)): >32 µg/mL | MIC (C. albicans (CBS562)): >32 µg/mL

CC1C=CC=CC=CC=CC=CC=CC=CC(OC2OC(C)C(O)C(NC(=O)CCOCCOCCOCCOCCN)C2O)CC2OC(O)(CC(O)CC(O)C(O)CCC(O)CC(O)CC(=O)OC(C)C(C)C1O)CC(O)C2C(=O)O (centres unmarked) [AMB-PEG4-amine]
Solubility ([2]; double-distilled water): 0.3 mg/mL (≈ 256 µM) | MIC (Aspergillus fumigatus; strain not stated): 2 to 3 µg/mL
